Here are results for 17 compounds from PMC6990405, “Synthesis and Structure–Activity relationship of 1-(5-isoquinolinesulfonyl)piperazine analogues as inhibitors of Mycobacterium tuberculosis IMPDH” (European Journal of Medicinal Chemistry, 2019).

In brackets after ≈: the same amount, converted by molar mass. Read-outs that look alike come from different tables or passages of the source.

A word on the IC50: it is the concentration that inhibits the measured activity by half. Usually stoichiometry N stands for the number of molecules, sites or subunits per partner or assembly.

The subject of one test is M. tuberculosis. Also noted: method as in PMID 20934382. Particulars: cited from earlier work.
The subject of test [1] is wild-type M. tuberculosis strain H37Rv. Put plainly: microbe, parasite or virus in culture. In kind it is cell-based. Particulars: wild-type M. tuberculosis H37Rv, read-out: MIC90 against WT.
In the next test the target is T1, Mtb IMPDH (Mycobacterium tuberculosis, UniProt P9WKI7).
T1 construct: made in house
Put plainly: IMPDH biochemical assay (inhibition of Mtb GuaB2). Particulars: Mtb IMPDH (GuaB2) enzyme.

In test [2] the target is Mycobacterium thermoresistible (Mth) IMPDH ΔCBS (Mycobacterium thermoresistible) (UniProt G7CNL4). Put plainly: crystal structure.
[3] abbreviates: Mycobacterium tuberculosis, H37RV.

Regarding `O=S(=O)(c1cccc2cnccc12)N1CCNCC1` [5-(piperazin-1-ylsulfonyl)isoquinoline], in the test with M. tuberculosis, the “MIC against M. tuberculosis” value is reported as “no MIC”.
`Cc1ccc(NC(=O)N2CCN(S(=O)(=O)c3cccc4cnccc34)CC2)c([N+](=O)[O-])c1` [Compound 39, 4-(isoquinolin-5-ylsulfonyl)-N-(4-methyl-2-nitrophenyl)piperazine-1-carboxamide]: the MIC90 in test [1] is listed as 25 µM (≈ 11.4 µg/mL). This compound had an IC50 against Mtb IMPDH of 600 ± 30 nM.
`O=C(Nc1cccc(Cl)c1Cl)N1CCN(S(=O)(=O)c2cccc3cnccc23)CC1` [Compound 37, N-(2,3-dichlorophenyl)-4-(isoquinolin-5-ylsulfonyl)piperazine-1-carboxamide]: the MIC90 in test [1] (setting [3]) turned out to be 125 µM (≈ 58.2 µg/mL). Moreover, on Mtb IMPDH, it took 900 ± 60 nM to reach half-maximal inhibition (IC50).
In the case of `N#Cc1ccc(C(=O)N2CCN(S(=O)(=O)c3cccc4cnccc34)CC2)cc1` [Compound 17, 4-[4-(isoquinoline-5-sulfonyl)piperazine-1-carbonyl]benzonitrile], the MIC90 in test [1] (setting [3]) turned out to be 100 µM (≈ 40.6 µg/mL). The 50% inhibitory concentration (IC50) against Mtb IMPDH is 16500 ± 500 nM.
For the compound `N#Cc1cccc(CC(=O)N2CCN(S(=O)(=O)c3cccc4cnccc34)CC2)c1` [Compound 24, 3-{2-[4-(isoquinoline-5-sulfonyl)piperazin-1-yl]-2-oxoethyl}benzonitrile], in test [1] (setting [3]), the MIC90 worked out at 125 µM (≈ 52.6 µg/mL). Further, half-maximal inhibition against Mtb IMPDH (IC50) required 5960 ± 200 nM.
In the same order, the values of `COc1ccc(CC(=O)N2CCN(S(=O)(=O)c3cccc4cnccc34)CC2)c(OC)c1` [Compound 27, 1-[4-(isoquinoline-5-sulfonyl)piperazin-1-yl]-2-(2,4-dimethoxyphenyl)ethan-1-one] are 250 µM (≈ 114 µg/mL) and 1980 ± 100 nM.
In test [2], “Mycobacterium thermoresistible (Mth) IMPDH ΔCBS (from UniProt G7CNL4 1-513) (enzyme)” showed a stoichiometry N of 4.
In the case of `O=C(Nc1ccc(F)c(Cl)c1)N1CCN(S(=O)(=O)c2cccc3cnccc23)CC1` [Compound 36, N-(3-chloro-4-fluorophenyl)-4-(isoquinolin-5-ylsulfonyl)piperazine-1-carboxamide], the MIC90 in test [1] (setting [3]) amounted to 31.2 µM (≈ 14 µg/mL). The same compound displayed an IC50 against Mtb IMPDH of 42 ± 2 nM.
In the same order, the values of `N#Cc1cccc(NC(=O)N2CCN(S(=O)(=O)c3cccc4cnccc34)CC2)c1` [Compound 31, N-(3-cyanophenyl)-4-(isoquinolin-5-ylsulfonyl)piperazine-1-carboxamide] are 15.6 µM (≈ 6.58 µg/mL) and 150 ± 30 nM.
On the same counts, the results for `O=C(CC1CCCCC1)N1CCN(S(=O)(=O)c2cccc3cnccc23)CC1` [Compound 22, 2-Cyclohexyl-1-(4-(isoquinolin-5-ylsulfonyl)piperazin-1-yl)ethan-1-one] are 31.2 µM (≈ 12.5 µg/mL) and 230 ± 20 nM.
On the same counts, the results for `O=C(c1cccc([N+](=O)[O-])c1)N1CCN(S(=O)(=O)c2cccc3cnccc23)CC1` [Compound 18, [4-(isoquinoline-5-sulfonyl)piperazin-1-yl](3-nitrophenyl)methanone] are 12.5 µM (≈ 5.33 µg/mL) and 1100 ± 100 nM.
For the compound `O=C(Nc1ccc2c(c1)OCO2)N1CCC(NS(=O)(=O)c2cccc3cnccc23)CC1` [Compound 43, 4-[(isoquinoline-5-sulfonyl)amino]-N-(2H-1,3-benzodioxol-5-yl)piperidine-1-carboxamide], the MIC90 in test [1] (setting [3]) is greater than 100 µM. Moreover, the IC50 against Mtb IMPDH was greater than 100000 nM.
On the same counts, the results for `O=C(Nc1ccc(Cl)c(C(F)(F)F)c1)N1CCN(S(=O)(=O)c2cccc3cnccc23)CC1` [Compound 34, N-(4-chloro-3-(trifluoromethyl)phenyl)-4-(isoquinolin-5-ylsulfonyl)piperazine-1-carboxamide] are 25 µM (≈ 12.5 µg/mL) and 160 ± 100 nM.
On to `O=C(C1CCCCC1)N1CCC(NS(=O)(=O)c2cccc3cnccc23)CC1` [Compound 5, N-[1-(cyclohexanecarbonyl)piperidin-4-yl]isoquinoline-5-sulfonamide], for which, in test [1] (setting [3]), the MIC90 was greater than 100 µM. For the same compound, half-maximal inhibition against Mtb IMPDH (IC50) required 14700 ± 300 nM.
For the compound `O=C(c1ccccc1)N1CCN(S(=O)(=O)c2cccc3cnccc23)CC1` [Compound 15, [4-(isoquinoline-5-sulfonyl)piperazin-1-yl](phenyl)methanone], the MIC90 in test [1] (setting [3]) and in test [1] was greater than 100 µM each time. Moreover, half-maximal inhibition against Mtb IMPDH (IC50) required 8100 ± 100 nM.
On to `O=C(Cc1ccc([N+](=O)[O-])cc1)N1CCN(S(=O)(=O)c2cccc3cnccc23)CC1` [Compound 30, 1-(4-(isoquinolin-5-ylsulfonyl)piperazin-1-yl)-2-(4-nitrophenyl)ethan-1-one], for which, in test [1] (setting [3]), the MIC90 worked out at 250 µM (≈ 110 µg/mL). This compound also registered an IC50 against Mtb IMPDH of 5300 ± 200 nM.
With `COc1cc(C(=O)N2CCN(S(=O)(=O)c3cccc4cnccc34)CC2)cc(OC)c1OC` [Compound 20, [4-(isoquinoline-5-sulfonyl)piperazin-1-yl](3,4,5-trimethoxyphenyl)methanone], in test [1] (setting [3]), the MIC90 amounted to 15.6 µM (≈ 7.36 µg/mL). This compound also yielded an IC50 on Mtb IMPDH of 12000 ± 500 nM.
